The values below come from patent US11999739B2, “Antimicrobials methods of making and using the same” (BIOVERSYS AG, priority 2016, dated 2024).

≈ marks a conversion by molar mass, not a printed value. Where two headings read alike, the source gives them in different places.

For orientation: MIC means the least concentration at which growth counts as inhibited.

Data set [1] has as its system Escherichia coli strain ATCC25922. In words: Standard microdilution MIC assay, E. coli. Type of data set: cell-based. In outline: (§1)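 MICs obtained by CLSI-standard microdilution, quality-controlled with reference strains in parallel. Values reported as + or − relative to a 16 micrograms/mL cutoff.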
In general terms: In broth dilution the organism is exposed to a series of concentrations in liquid medium.

The nature of data set [2]: Rat five day safety study (bodyweight gain, reticulocyte count change). Type of data set: in vivo. To be noted: male Sprague-Dawley juvenile rats, n=5, once daily slow intravenous infusion for 5 days at or near maximum-tolerated dose; for BW Result: bodyweight gain; for Hematology Result: reticulocyte count change. As for the experimental part:
The compounds of the present disclosure were tested for safety in a multi-day dosing study in rat. Key parameters that were monitored are bodyweight gain and hematological changes, particularly changes in reticulocyte counts. Male Sprague-Dawley (CD) juvenile rats were received from Charles River with double jugular vein catheters. For each compound, n=5. […] Bodyweights were recorded daily for the first 5 days (during the dosing period), then 2 to 3 times per week thereafter. Blood was collected via a jugular vein catheter into EDTA anti-coagulated tubes for complete blood counts (CBC) on Days 0 (baseline), 3 and 7. On Day 22, blood was drawn via a cardiac puncture into EDTA coated tubes for final CBC, and serum separator tubes for the complete clinical chemistry profile. The blood that was collected into serum separator tubes was allowed to clot at room temperature for approximately 30 minutes, spun in a centrifuge at 2000 rpm, and the resulting serum was aliquoted. All samples were sent on wet ice to Charles River Labs for analysis.

Data set [3] deals with Staphylococcus aureus (S. aureus) 11540 strain. In words: Standard microdilution MIC assay, S. aureus. The class given is cell-based. Put shortly:
as §1

Another data set has as its system E. coli DH10B. Description: CLSI broth microdilution MIC, E. coli DH10B recipient. Type of data set: cell-based. The method, then:
(§2) MICs of the four tested compounds and comparators (amikacin, cefepime, colistin, meropenem and tigecyline) were determined by CLSI broth microdilution using pre-prepared plates (Trek Diagnostic Systems) (CLSI Approved Standard M7-A10). Carbapenemase and mcr-1 genes were detected by PCR or sequencing. Efflux levels in P. aeruginosa isolates were inferred by interpretive reading of antibiogram data.

The next data set has as its system MCR-1 isolates. In words: CLSI broth microdilution MIC, Enterobacteriaceae with MCR-1. The settings on record: all MCR-1 isolates (n=14), FIG. 3. Type of data set: cell-based. The method, then:
(§3) Four compounds, including Compound Nos. 120 and 162 of the present application (RX-04B and RX-04C, respectively) were tested against (i) multiresistant Enterobacteriaceae and Acinetobacter with carbapenemases; (ii) Enterobacteriaceae with MCR-1; and (iii) P. aeruginosa with altered efflux (see Tables 4 and 5). In this case, MCR-1 is relevant because its activity reduces the negative charge of lipopolysaccharides, potentially affecting binding of poly-basic molecules such as the compounds tested herein, as well as polymyxins.
as §2

Data set [4] deals with E. coli DH10B mcr-1 transformant. In words: CLSI broth microdilution MIC, E. coli DH10B mcr-1 transformant. Type of data set: cell-based. The method, then:
as §2

In a further data set the test system is A. baumannii. Description: CLSI broth microdilution MIC, A. baumannii. The class given is cell-based. As for the experimental part: as §3, §2
Another data set relates to CPE. Description: CLSI broth microdilution MIC, carbapenemase-producing Enterobacteriaceae (CPE). Type of data set: cell-based. To be noted: 35/36 (97%) of CPE, FIG. 2. As for the experimental part: as §3, §2
The next data set deals with Enterobacteriaceae. Description: CLSI broth microdilution MIC, multiresistant Enterobacteriaceae panel. The class given is cell-based. To be noted: for MIC, peak of unimodal distribution: 68 Enterobacteriaceae, FIG. 1. As for the experimental part: as §3, §2
Another data set has as its system P. aeruginosa. Description: CLSI broth microdilution MIC, P. aeruginosa with altered efflux. The class given is cell-based. As for the experimental part:
as §3, §2

[5] abbreviates: Escherichia coli, read-out: MIC.
Setting [6] is: Pseudomonas aeruginosa, almost half (48%) of the MICs, FIG. 5, read-out: MIC.

`CC(=N)N[C@H](C)C[C@@H]1CCC[C@@H](c2ccc(-n3cc4cc(-c5cc(CCC[C@H](C)N)cc(Cl)c5F)[nH]c4nc3=O)cc2)N1` [Compound 254] had an MIC in data set [1] of at most 16 µg/mL. In addition, in data set [2], the “BW Result” value is “+ (a “+” in “BW result” indicates that the rat exhibited a weight gain of 20% or more)” and the “Hematology Result” value is on record as “+ (a “+” in “Hematology result” indicates indicates that the rat exhibited a reticulocyte count change of 65% or less)”. This molecule gave an MIC in data set [3] of at most 16 µg/mL.
`CC(=N)NCC[C@@H]1CCC[C@@H](c2ccc(-n3cc4cc(-c5cc(CCC[C@H](C)N)cc(Cl)c5F)[nH]c4nc3=O)cc2)N1CCCF` [Compound 264]: the MIC in data set [1] and in data set [3] was at most 16 µg/mL in each case. Besides, the “BW Result” value in data set [2] was “+ (a “+” in “BW result” indicates that the rat exhibited a weight gain of 20% or more)”. Moreover, in [2], the “Hematology Result” value is reported as “+ (a “+” in “Hematology result” indicates indicates that the rat exhibited a reticulocyte count change of 65% or less)”.
In data set [1], `CC(=N)NCC[C@@H]1CCC[C@@H](c2ccc(-n3cc4cc(-c5cc(CCC[C@H](C)N)cc(Cl)c5F)[nH]c4nc3=O)cc2)N1CCCO` [Compound 290] yielded an MIC of at most 16 µg/mL. Also, in [2], the “BW Result” value is listed as “+ (a “+” in “BW result” indicates that the rat exhibited a weight gain of 20% or more)” and the “Hematology Result” value is on record as “+ (a “+” in “Hematology result” indicates indicates that the rat exhibited a reticulocyte count change of 65% or less)”. Further, the MIC in data set [3] was at most 16 µg/mL.
In [1], `CC(=N)NCC[C@@H]1CCC[C@@H](c2ccc(-n3cc4cc(-c5cc(CCC[C@H](C)N)c(C(F)(F)F)cc5F)[nH]c4nc3=O)cc2)N1` [Compound 317] yielded an MIC of at most 16 µg/mL. Moreover, in data set [2], the “BW Result” value is listed as “− (a “−” indicates that the rat exhibited a weight gain of less than 20%)” and the “Hematology Result” value is listed as “− (a “−” indicates indicates that the rat exhibited a reticulocyte count change of greater than 65%)”. Moreover, the MIC in data set [3] is at most 16 µg/mL.
Turning to `CCCN1[C@H](CCNC(C)=N)CCC[C@H]1c1ccc(-n2cc3cc(-c4cc(CCC[C@H](C)N)cc(Cl)c4F)[nH]c3nc2=O)cc1` [Compound 360], the MIC in data set [1] is at most 16 µg/mL. In data set [2], the “BW Result” value is listed as “+ (a “+” in “BW result” indicates that the rat exhibited a weight gain of 20% or more)” and the “Hematology Result” value is given as “+ (a “+” in “Hematology result” indicates indicates that the rat exhibited a reticulocyte count change of 65% or less)”. Moreover, the MIC in data set [3] was at most 16 µg/mL.
On to `C[C@H](N)CCCc1cc(OC(F)(F)F)c(F)c(-c2cc3cn(-c4ccc([C@@H]5CCC[C@@H](CCNC(=N)N)N5)cc4)c(=O)nc3[nH]2)c1` [RX-04A], for which the minimum inhibitory concentration (MIC) in the data set with E. coli DH10B (setting [5]) was 0.25 µg/mL (≈ 0.389 µM); in data set [4] (Escherichia coli), 0.25 µg/mL (≈ 0.389 µM); in the data set with A. baumannii (Acinetobacter baumannii, 7/10 values, read-out: MIC) it was 1 to 2 µg/mL (≈ 1.56 to 3.11 µM); against A. baumannii (MICs mostly (summary)), 1 to 2 µg/mL; against Enterobacteriaceae (67/68 (>98%) MICs), 0.25 to 2 µg/mL (≈ 0.389 to 3.11 µM); against Enterobacteriaceae (MICs mostly (summary)) it was 1 to 2 µg/mL (≈ 1.56 to 3.11 µM). Also, the MIC lay in the range of 1 to 4 µg/mL with P. aeruginosa (MICs mostly (summary)) and 1 to 4 µg/mL (≈ 1.56 to 6.22 µM) in the data set on P. aeruginosa (Pseudomonas aeruginosa, 19/20 (95%) isolates, read-out: MIC). Further, the entries for the “MIC relative to the MIC for E. coli ATCC 25922” value in the data set with MCR-1 isolates and against CPE were at most 2 fold and at most 4 fold, respectively. Moreover, the “MIC, peak of unimodal distribution” value against Enterobacteriaceae came out at 1 µg/mL. In addition, the “MIC change in isolates with elevated efflux” value against P. aeruginosa (P. aeruginosa isolates with elevated efflux) is “not raised”.
On to `CSc1cc(-n2cc3cc(-c4cc(CCC[C@@H](N)C5CC5)cc(Cl)c4F)[nH]c3nc2=O)ccc1[C@@H]1CCC[C@@H](CCNC(=N)N)N1` [RX-04B], for which the MIC (with E. coli DH10B (setting [5]); in [4] (Escherichia coli)) was 0.5 µg/mL (≈ 0.752 µM) throughout. Further, the “MIC, peak of unimodal distribution” value with Enterobacteriaceae came to 1 µg/mL.
On to `N=C(N)NCC[C@@H]1CCC[C@@H](c2ccc(-n3cc4cc(-c5cc(CCC[C@@H](N)CO)cc(Cl)c5F)[nH]c4nc3=O)cc2F)N1` [RX-04C], for which the MIC is 0.5 µg/mL (≈ 0.797 µM) in the data set with E. coli DH10B (setting [5]), 0.5 µg/mL (≈ 0.797 µM) in data set [4] (Escherichia coli) and at least 16 µg/mL in the data set with P. aeruginosa (setting [6]). For the same molecule, the “MIC, peak of unimodal distribution” value in the data set with Enterobacteriaceae was determined as 2 µg/mL.
With `C[C@H](N)CCCc1cc(Cl)c(F)c(-c2cc3cn(-c4ccc([C@@H]5CCC[C@@H](CCNC(=N)CN)N5)cc4)c(=O)nc3[nH]2)c1` [RX-04D], the MIC in the data set on E. coli DH10B (setting [5]) is 1 µg/mL (≈ 1.65 µM); in [4] (Escherichia coli), 1 µg/mL (≈ 1.65 µM); with P. aeruginosa (setting [6]) it was at least 16 µg/mL. In addition, in the data set with A. baumannii (10 A. baumannii, FIG. 4), the “relative activity among analogues” value is reported as “least active analogue”. Besides, the “MIC, peak of unimodal distribution” value in the data set with Enterobacteriaceae came to 2 µg/mL.
With colistin [reference compound], the MIC came to 0.25 µg/mL in the data set on E. coli DH10B and 4 µg/mL in [4] (MCR-1 Transformant).
